One may read the inhibition as the percentage by which the read-out fell short of the control.

Read-outs that look alike come from different tables or passages of the source.

Among the data in EP1724268A1, “COMPOUND HAVING TGF-BETA INHIBITORY ACTIVITY AND PHARMACEUTICAL COMPOSITION CONTAINING SAME” (KIRIN BEER KABUSHIKI KAISHA, priority 2004, dated 2005) are inhibition values, retold here.

The assay deals with TGFβ signal. Kind of assay: TGFβ signal inhibitory activity, (SBE)4-Luc reporter in A549 cells (Test Examples 1A and 1B). As to conditions: Homo sapiens, A549, read-out: TGFβ inhibition rate, %. It is filed as cell-based, human. The method in brief: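 Stable A549 line carrying (SBE)4-Luc Smad3-binding reporter treated with compound plus TGFβ-1 (2 ng/ml) for 4 hr; luciferase read by chemiluminescence. Percent inhibition relative to TGFβ-only and untreated cells, tested at 3 µM and 10 µM, some also at 1 µM.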

The mark [1] stands for this setting: 3 µM, compounds of Reference Examples (Test Example 1B).
Setting [2] is: 10 µM, compounds of Reference Examples (Test Example 1B).
Setting [3] is: test compound 3 µM, Reference Examples, Table 1B.
The mark [4] stands for this setting: test compound 10 µM, Reference Examples, Table 1B.
The mark [5] stands for this setting: test compound 3 µM, TGFβ-1 2 ng/ml, 4 hr, Table 1A.
[6] abbreviates: test compound 10 µM, TGFβ-1 2 ng/ml, 4 hr, Table 1A.

For `COc1cc2c(Oc3cc(C)c(C)cc3C(C)=O)ccnc2cc1OCc1ccccc1` [Compound r313], under setting [1], the inhibition at 3 µM was determined as 56%. Also, the inhibition at 10 µM under setting [2] worked out at 94%.

Consider `COc1cc2c(Oc3cc(C)c(C)cc3C(C)=O)ccnc2cc1OCCCl` [Compound r315], for which the inhibition at 3 µM under setting [1] is 98%. Besides, the inhibition at 10 µM under setting [2] was determined as 100%. With `COc1cc2nccc(Oc3ccc(C)cc3C(=O)C3CCCCC3)c2cc1OC` [Compound r59], the inhibition at 3 µM under setting [3] worked out at 65%. For the same molecule, the inhibition at 10 µM under setting [4] worked out at 99%. With `COc1cc2nccc(Oc3cccc4ccccc34)c2cc1OC` [Compound r16], the inhibition at 3 µM under setting [3] is 0%. The inhibition at 10 µM under setting [4] was found to be 62%. As to `COc1cc2c(Oc3cc4ccccc4nc3C)ccnc2cc1OCCCN` [Compound r376], the inhibition at 3 µM under setting [1] worked out at 100%. The inhibition at 10 µM under setting [2] amounted to 100%. Turning to `COc1ccc(Oc2ncnc3cc(OC)c(OC)cc23)c(C(C)=O)c1` [r162], the inhibition at 3 µM under setting [3] was 5%. In addition, the inhibition at 10 µM under setting [4] is 54%. On to `Cc1csc2ncnc(Oc3cc4cccnc4nc3-c3ccccc3)c12` [Compound 77, 3-(5-Methyl-thieno[2,3-d]pyrimidin-4-yloxy)-2-phenyl-[1,8]naphthyridine], for which the inhibition at 3 µM under setting [5] was 93%. Moreover, under setting [6], the inhibition at 10 µM turned out to be 99%. As to `CCOC(=O)c1cc(-n2cccc2)ccc1Oc1ccnc2cc(OC)c(OC)cc12` [Compound r90], the inhibition at 3 µM under setting [3] turned out to be 54%. For the same molecule, the inhibition at 10 µM under setting [4] amounted to 95%. Turning to `COc1cc2nccc(Oc3cc(C)c(SC)cc3C(C)=O)c2cc1OC` [Compound r186], the inhibition at 3 µM under setting [1] was 76%. For the same molecule, the inhibition at 10 µM under setting [2] is 100%.

`Cc1ccc(Oc2ccnc3ccc(OCC(C)(C)C)cc23)c(-c2ncccn2)n1` [Compound 214, 6-(2,2-Dimethyl-propoxy)-4-(6-methyl-2-pyrimidin-2-yl-pyridin-3-yloxy)-quinoline]: under setting [5], the inhibition at 3 µM turned out to be 90%.

Consider `COc1cc2nccc(Oc3cc4cccnc4cc3-c3ccccc3)c2cc1OC` [Compound r299, 6,7-Dimethoxy-4-(7-phenyl-quinolin-6-yloxy)-quinoline], for which the inhibition at 3 µM under setting [1] was 99%. The inhibition at 10 µM under setting [2] was found to be 100%. Turning to `Cc1cc(Oc2ccnc3cc(-c4ccccc4)ccc23)c(-c2ccccn2)nc1C` [Compound 17, 5,6-Dimethyl-3-(7-phenyl-quinolin-4-yloxy)-[2,2']bipyridine], the inhibition at 3 µM under setting [5] worked out at 98%. Moreover, the inhibition at 10 µM under setting [6] came out at 100%.

For the molecule `COc1cc2nccc(Oc3cc4ccccc4nc3CN(C(C)C)C(C)C)c2cc1OC` [Compound r277, [3-(6,7-Dimethoxy-quinolin-4-yloxy)-quinolin-2-ylmethyl]-diisopropyl-amine], the inhibition at 3 µM under setting [1] is 32%. Besides, under setting [2], the inhibition at 10 µM was 89%. On to `COc1cc2nccc(Oc3ccc(Cl)cc3C(N)=O)c2cc1OC` [Compound r106], for which, under setting [3], the inhibition at 3 µM was determined as 9%. Under setting [4], the inhibition at 10 µM was 80%. `COc1cc2c(Oc3cc(C)c(C)nc3-c3ccc(C)cn3)ccnc2cc1OCc1ccccc1` [Compound r452]: under setting [1], the inhibition at 3 µM came out at 67%. Also, the inhibition at 10 µM under setting [2] amounted to 99%. The corresponding values for `COc1cc2nccc(Oc3cc(C)c(C)cc3C(C)=NO)c2cc1OC` [Compound r195] are 99% and 100%.

As to `COc1cc2nccc(Oc3cc4c(nc3-c3ccccc3)NCCC4)c2cc1C(=O)NCc1ccccc1` [Compound 99, 7-Methoxy-4-(2-phenyl-5,6,7,8-tetrahydro-[1,8]naphthyridin-3-yloxy)-quinoline-6-carboxylate benzylamide], under setting [5], the inhibition at 3 µM came out at 76%. Also, the inhibition at 10 µM under setting [6] came to 92%. Take `CO/N=C(\C)c1cc(C)c(C)cc1Oc1ccnc2cc(OC)c(OC)cc12` [r196]: the inhibition at 3 µM under setting [1] was 41%. For the same molecule, under setting [2], the inhibition at 10 µM worked out at 83%. As for `c1ccc(-c2nc3ncccc3cc2Oc2ccnc3ccccc23)cc1` [Compound 52, 2-Phenyl-3-(quinolin-4-yloxy)-[1,8]naphthyridine], the inhibition at 3 µM under setting [5] came to 96%. For the same molecule, the inhibition at 10 µM under setting [6] is 100%. Regarding `COc1cc2c(Oc3cc(C)c(C)nc3-c3cccnc3)ccnc2cc1OCC1CO1` (stereo not shown) [Compound r348], under setting [1], the inhibition at 3 µM is 76%. With `COc1cc2nccc(Oc3ccc(C)nc3Cc3cccc(C)n3)c2cc1OC` [r215], under setting [1], the inhibition at 3 µM came out at 72%. Under setting [2], the inhibition at 10 µM came out at 99%. The corresponding values for `COc1cc2nccc(Oc3cc4ccccc4nc3OC3CCCC3)c2cc1OC` [r280] are 45% and 88%. In the case of `CCOC(=O)c1cc(C)ccc1Oc1ccnc2cc(OC)c(OC)cc12` [Compound r87], under setting [3], the inhibition at 3 µM was 84%. Moreover, the inhibition at 10 µM under setting [4] was determined as 99%.

Regarding `Cc1ccc(Oc2ccnc3ccc(OCCCN4CCN(c5ccccn5)CC4)cc23)c(-c2ncccn2)n1` [Compound 218, 4-(6-Methyl-2-pyrimidin-2-yl-pyridin-3-yloxy)-6-[3-(4-pyridin-2-yl-piperazin-1-yl)-propoxy]-quinoline], under setting [5], the inhibition at 3 µM was 84%. Moreover, the inhibition at 10 µM under setting [6] amounted to 100%.

Take `CCCOC(=O)c1ccccc1Oc1ccnc2cc(OC)c(OC)cc12` [Compound r94]: under setting [3], the inhibition at 3 µM stood at 39%. Also, the inhibition at 10 µM under setting [4] was found to be 97%. Take `COC(=O)c1cc2c(Oc3cc4cccnc4nc3-c3ccccc3)ccnc2cc1OC` [Compound 63, Methyl 7-methoxy-4-(2-phenyl-[1,8]naphthyridin-3-yloxy)-quinoline-6-carboxylate]: under setting [5], the inhibition at 3 µM was 99%. Also, under setting [6], the inhibition at 10 µM is 100%. Take `COc1cc2c(Oc3cc4ccccc4nc3C)ccnc2cc1OCCN1CCCC(CO)C1` (stereo not shown) [Compound r359]: the inhibition at 3 µM under setting [1] was found to be 100%. The inhibition at 10 µM under setting [2] came out at 100%. Take `COc1cc2nccc(Oc3ccc(C)nc3-c3ccc(O)cc3)c2cc1OC` [Compound r248]: the inhibition at 3 µM under setting [1] was 99%. In addition, the inhibition at 10 µM under setting [2] turned out to be 100%.

On to `COc1ccc(Oc2ccnc3cc(OCCN4CCOCC4)c(OC)cc23)c(C(C)=O)c1` [r120], for which the inhibition at 3 µM under setting [3] stood at 94%. The inhibition at 10 µM under setting [4] was found to be 100%. For `COc1cc2ncnc(Oc3cc(C)c(C)nc3-c3cccnc3)c2cc1OC` [Compound 48, 4-(5,6-Dimethyl-[2,3']bipyridinyl-3-yloxy)-6,7-dimethoxy-quinazoline], for the setting “test compound 1 µM, TGFβ-1 2 ng/ml, 4 hr, Table 1A”, the inhibition at 1 µM was found to be 28%. Further, the inhibition at 3 µM under setting [5] worked out at 64%. With `COc1cc2nccc(Oc3ccc(C)nc3-c3cccnc3)c2cc1OC` [Compound r262], the inhibition at 3 µM under setting [1] is 91%. For the same molecule, under setting [2], the inhibition at 10 µM was 100%. `COc1cc2nccc(Oc3ccc(C)nc3C(=O)c3ccccc3)c2cc1OC` [Compound r220]: under setting [1], the inhibition at 3 µM was found to be 99%. The inhibition at 10 µM under setting [2] amounted to 100%. Regarding `Cc1ccc2nccc(Oc3cc(C)c(C)nc3-c3ccccn3)c2c1` [Compound 157, 5,6-Dimethyl-3-(6-methyl-quinolin-4-yloxy)-[2,2']bipyridine], the inhibition at 3 µM under setting [5] came to 99%. The inhibition at 10 µM under setting [6] amounted to 100%. As for `COc1cc2c(Oc3ccc(C)cc3C(=O)c3ccccc3)ccnc2cc1OCCN1CCOCC1` [Compound r130], the inhibition at 3 µM under setting [3] was found to be 90%. Also, the inhibition at 10 µM under setting [4] turned out to be 100%. Take `CCOC(=O)COc1cc2nccc(Oc3cc4ccccc4nc3C)c2cc1OC` [Compound r372]: the inhibition at 3 µM under setting [1] came out at 14%. In addition, the inhibition at 10 µM under setting [2] stood at 93%. As to `COc1ccc(C(C)=O)c(Oc2ccnc3cc(OC)c(OC)cc23)c1` [r31], under setting [3], the inhibition at 3 µM worked out at 49%. Also, the inhibition at 10 µM under setting [4] was 98%.

Take `COc1cc2nccc(Oc3ccc(C)nc3-c3cccc(O)c3)c2cc1OC` [Compound r237]: the inhibition at 3 µM under setting [1] was determined as 100%. Besides, the inhibition at 10 µM under setting [2] was determined as 100%. Take `COc1cc2c(Oc3cc4cccnc4nc3C)ccnc2cc1OCc1ccccc1` [Compound r397]: under setting [1], the inhibition at 3 µM turned out to be 71%. In addition, the inhibition at 10 µM under setting [2] came to 100%. For `CCC(=O)c1cc(C(C)(C)C)ccc1Oc1ccnc2cc(OC)c(OC)cc12` [Compound r49], the inhibition at 3 µM under setting [3] is 0%. Under setting [4], the inhibition at 10 µM was determined as 62%.

For `COc1cc2nccc(Oc3ccccc3C(=O)/C=C/c3ccccc3)c2cc1OC` [r57], the inhibition at 3 µM under setting [3] worked out at 10%. For the same molecule, the inhibition at 10 µM under setting [4] was 55%. Regarding `Brc1ccc2ncnc(Oc3cc4cccnc4nc3-c3ccccc3)c2c1` [Compound 69, 6-Bromo-4-(2-phenyl-[1,8]naphthyridin-3-yloxy)-quinazoline], under setting [5], the inhibition at 3 µM was 52%. The inhibition at 10 µM under setting [6] worked out at 94%. For `COc1cc2c(Oc3cc(C)c(C)nc3-c3cccc(C)n3)ccnc2cc1O` [Compound r443], the inhibition at 3 µM under setting [1] came to 60%. Moreover, the inhibition at 10 µM under setting [2] was found to be 97%.

`Cc1cc(Oc2ccnc3ccccc23)c(-c2ccccn2)nc1C` [Compound 1, 5,6-Dimethyl-3-(quinolin-4-yloxy)-[2,2']bipyridine]: the inhibition at 3 µM under setting [5] came out at 100%. For the same molecule, the inhibition at 10 µM under setting [6] is 100%. In the case of `Cc1cc(Oc2ccnc3cc(Cl)c(Cl)cc23)c(-c2ccccn2)nc1C` [Compound 131, 3-(6,7-Dichloro-quinolin-4-yloxy)-5,6-dimethyl-[2,2']bipyridine], under setting [5], the inhibition at 3 µM came to 99%. Moreover, the inhibition at 10 µM under setting [6] worked out at 100%. For `COc1ccc(Oc2ccnc3cc(OCCCN4CCOCC4)c(OC)cc23)c(C(C)=O)c1` [r122], the inhibition at 3 µM under setting [3] worked out at 100%. Also, the inhibition at 10 µM under setting [4] came to 100%.
